Legend:
PDE4 = test: Inhibition of PDE4 activity (method of Bauer and Schwabe, adapted to microtiter plates); type: biochemical; conditions: inhibitory concentration as -log IC50 (mol/l)
Description: The activity test was carried out according to the method of Bauer and Schwabe, which was adapted to microtiter plates (Naunyn-Schmiedeberg's Arch. Pharmacol. 1980, 311, 193-198). In this test, the PDE reaction takes place in the first step. In a second step, the resulting 5′-nucleotide is cleaved by a 5′-nucleotidase of the snake venom from Crotalus atrox to give the uncharged nucleoside. In the third step, the nucleoside is separated from the remaining charged substrate on ion-exchange columns. The columns are eluted directly into minivials to which 2 ml of scintillator fluid is additionally added for counting […].
The inhibitory values determined for the compounds according to the invention [inhibitory concentration as -log IC50 (mol/l)] results from the following Table A, in which the numbers of the compounds correspond to the numbers of the examples.

Structure (SMILES) | melting point [°C] | Inhibition of the PDE4 activity, -log IC50 (PDE4) [mol/l]
COc1ccc(C2(C#N)CCC(C(N)=O)CC2)c2nc(C(C)C)oc12 (stereo not drawn) [Compound 7, Cis-4-Cyano-4-(2-isopropyl-7-methoxybenzoxazol-4-yl)cyclohexane-1-carboxamide] | 228 | 7.65
COc1ccc(C2(C#N)CCOCC2)c2nc(C)oc12 [Compound 1, 4a-Cyano-4e-(2-methyl-7-methoxybenzoxazol-4-yl)tetrahydropyran] | 72 | 6.87
COc1ccc(C2(C#N)CCOCC2)c2nc(C(C)C)oc12 [Compound 2, 4a-Cyano-4e-(2-isopropyl-7-methoxybenzoxazol-4-yl)-tetrahydropyran] | 156.5 | 7.86
COc1ccc(C2(C#N)CCC(C(=O)O)CC2)c2nc(C(C)C)oc12 (stereo not drawn) [Compound 6, cis-4-Cyano-4-(2-isopropyl-7-methoxybenzoxazol-4-yl)cyclohexane-1-carboxylic acid] | 217.5 | 7.69
COc1ccc(C2(C#N)CCC(=O)CC2)c2nc(C(C)C)oc12 [Compound 3, 4-Cyano-4-(2-isopropyl-7-methoxybenzoxazol-4-yl)cyclohexanone] | 118 | 6.96

Second part, led by results:

melting point [°C] | Structure (SMILES) | Inhibition of the PDE4 activity, -log IC50 (PDE4) [mol/l]
83 | COC(=O)C1CCC(C#N)(c2ccc(OC)c3oc(C(C)C)nc23)CC1 (stereo not drawn) [Compound 5, Methyl cis-4-cyano-(2-isopropyl-7-methoxybenzoxazol-4-yl)cyclohexane-1-carboxylate] | 6.46
116.5 | COc1ccc(C2(C#N)CCC(O)CC2)c2nc(C(C)C)oc12 (stereo not drawn) [Compound 4, cis-4-Cyano-4-(2-isopropyl-7-methoxybenzoxazol-4-yl)cyclohexan-1-ol] | 7.77

Source: patent publication US6376485B1, “Benzoxazoles with PDE-inhibiting activity” (Byk Gulden Lomberg Chemische Fabrik GmbH, priority 1998, dated 2002)
